Where a SMILES comes first, the peptide text is derived from it. [ ]: non-standard residue; d: D form. The star is where a group is joined. NHCH2CH2OH = OCCN*; For = O=C*
Experiments:
[1] = cell viability/%
Summary of the method: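 P388 cells at 1 × 10^4 cells/mL (final) were exposed to library peptides (stocks diluted 250-fold in RPMI1640/10% FBS) for 92 h at 37 °C, 5% CO2. Viable cells were counted by WST-1/1-methoxy PMS (4 h), absorbance 415 nm, and expressed as cell viability (%).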

[2] = tested on: Streptococcus pyogenes SSI-9; test: Antibacterial activity assay of bead-derived peptides (three concentrations); type: cell-based; set-up: key: +++: inhibition by the 640-fold diluted peptide solution; ++: inhibition by the 160-fold diluted solution; +: inhibition by the 40-fold diluted solution; -: no inhibition; conditions: S. pyogenes, bead-derived peptide solution, three concentrations
Summary of the method: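 Undiluted, 4-fold and 16-fold DMSO-diluted peptide stocks; S. pyogenes SSI-9, 2 × 10^5 CFU, cation-adjusted MHB (50 mg/L Ca2+, 25 mg/L Mg2+) + 5% laked horse blood; 37 °C, 18 h; readout = cell pellet visible or not.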

[3] = H+/Na+ transport assay of bead-derived peptides (one-point); type: biochemical; set-up: key: relative activity; mean of two control wells = 1.00; conditions: bead-derived peptide solution, EYPC/EYPG LUVs;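 note: relative to parent gramicidin A activity set to 1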
Summary of the method: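 Values are normalized fluorescence, with Triton X-100 defining 100% and untreated LUVs 0%, and the two control wells averaging 1.00. Vesicles carried 1.0 mM pyranine and included egg yolk phosphatidylglycerol. Peptides were incubated with them 30 min at room temperature.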

Row | Structure (SMILES) | viability [1] [%] | antibacterial activity [2] | H+/Na+ transport activity normalized against the value of 1 (1.00) [3]
1 | CC(C)C[C@@H](NC(=O)[C@H](C)NC(=O)[C@H](NC(=O)[C@H](C)NC(=O)CNC(=O)[C@@H](NC=O)C(C)C)C(C)C)C(=O)N[C@H](C(=O)N[C@@H](C(=O)N[C@@H](Cc1c[nH]c2ccccc12)C(=O)N[C@H](CC(C)C)C(=O)N[C@@H](Cc1c[nH]c2ccccc12)C(=O)N[C@@H](C(=O)N[C@@H](Cc1c[nH]c2ccccc12)C(=O)N[C@@H](C(=O)N[C@@H](Cc1c[nH]c2ccccc12)C(=O)NCCO)C(C)C)[C@H](C)O)C(C)C)C(C)C [compound 8473] (For-VGA[dV]A[dL]V[dV]W[dL]W[dT]W[dV]W-NHCH2CH2OH) | 53.6 | - | 1.01
2 | CC(C)C[C@@H](NC(=O)[C@H](C)NC(=O)CNC(=O)[C@@H](NC=O)C(C)C)C(=O)N[C@@H](C)C(=O)N[C@@H](C(=O)N[C@H](C(=O)N[C@H](CC(C)C)C(=O)N[C@@H](Cc1c[nH]c2ccccc12)C(=O)N[C@@H](C(=O)N[C@@H](Cc1c[nH]c2ccccc12)C(=O)N[C@H](CC(C)C)C(=O)N[C@@H](Cc1c[nH]c2ccccc12)C(=O)N[C@H](CC(C)C)C(=O)N[C@@H](Cc1c[nH]c2ccccc12)C(=O)NCCO)C(C)C)C(C)C)C(C)C [compound 7532] (For-VGA[dL]A[dV]V[dL]W[dV]W[dL]W[dL]W-NHCH2CH2OH) | 3.9 | + | 1.03
3 | CC(C)C[C@@H](NC(=O)[C@H](C)NC(=O)CNC(=O)[C@@H](NC=O)C(C)C)C(=O)N[C@@H](C)C(=O)N[C@@H](C(=O)N[C@H](C(=O)N[C@H](CC(C)C)C(=O)N[C@@H](Cc1c[nH]c2ccccc12)C(=O)N[C@H](CC(C)C)C(=O)N[C@@H](Cc1c[nH]c2ccccc12)C(=O)N[C@@H](C(=O)N[C@@H](Cc1c[nH]c2ccccc12)C(=O)N[C@@H](C(=O)N[C@@H](Cc1c[nH]c2ccccc12)C(=O)NCCO)C(C)C)C(C)C)C(C)C)[C@H](C)O [compound 1898] (For-VGA[dL]A[dT]V[dL]W[dL]W[dV]W[dV]W-NHCH2CH2OH) | 100 | - | 1.07
4 | CC(C)C[C@@H](NC(=O)[C@H](C)NC(=O)CNC(=O)[C@@H](NC=O)C(C)C)C(=O)N[C@@H](C)C(=O)N[C@@H](C(=O)N[C@H](C(=O)N[C@H](CC(C)C)C(=O)N[C@@H](Cc1c[nH]c2ccccc12)C(=O)N[C@H](CC(C)C)C(=O)N[C@@H](Cc1c[nH]c2ccccc12)C(=O)N[C@@H](C(=O)N[C@@H](Cc1c[nH]c2ccccc12)C(=O)N[C@@H](C(=O)N[C@@H](Cc1c[nH]c2ccccc12)C(=O)NCCO)C(C)C)[C@H](C)O)C(C)C)[C@H](C)O [compound 381] (For-VGA[dL]A[dT]V[dL]W[dL]W[dT]W[dV]W-NHCH2CH2OH) | 100 | - | 1.03
5 | CNC(=O)C[C@@H](NC(=O)[C@H](Cc1c[nH]c2ccccc12)NC(=O)[C@H](NC(=O)[C@@H](NC(=O)[C@@H](CC(C)C)NC(=O)[C@H](C)NC(=O)[C@H](NC(=O)[C@H](C)NC(=O)CNC(=O)[C@@H](NC=O)C(C)C)C(C)C)C(C)C)C(C)C)C(=O)N[C@@H](Cc1c[nH]c2ccccc12)C(=O)N[C@H](CC(C)C)C(=O)N[C@@H](Cc1c[nH]c2ccccc12)C(=O)N[C@H](CC(C)C)C(=O)N[C@@H](Cc1c[nH]c2ccccc12)C(=O)NCCO [compound 5838] (For-VGA[dV]A[dL]V[dV]W[dD](NHMe)W[dL]W[dL]W-NHCH2CH2OH) | 100 | - | 1.12
6 | CNC(=O)C[C@@H](NC(=O)[C@H](Cc1c[nH]c2ccccc12)NC(=O)[C@@H](CC(C)C)NC(=O)[C@H](Cc1c[nH]c2ccccc12)NC(=O)[C@H](NC(=O)[C@H](Cc1c[nH]c2ccccc12)NC(=O)[C@H](NC(=O)[C@@H](NC(=O)[C@H](NC(=O)[C@H](C)NC(=O)[C@@H](CC(C)C)NC(=O)[C@H](C)NC(=O)CNC(=O)[C@@H](NC=O)C(C)C)C(C)C)C(C)C)C(C)C)C(C)C)C(=O)N[C@@H](Cc1c[nH]c2ccccc12)C(=O)NCCO [compound 4898] (For-VGA[dL]A[dV]V[dV]W[dV]W[dL]W[dD](NHMe)W-NHCH2CH2OH) | 100 | - | 1.21
7 | CC(C)C[C@@H](NC(=O)[C@H](C)NC(=O)[C@H](NC(=O)[C@H](C)NC(=O)CNC(=O)[C@@H](NC=O)C(C)C)C(C)C)C(=O)N[C@H](C(=O)N[C@H](CC(C)C)C(=O)N[C@@H](Cc1c[nH]c2ccccc12)C(=O)N[C@@H](C(=O)N[C@@H](Cc1c[nH]c2ccccc12)C(=O)N[C@@H](C(=O)N[C@@H](Cc1c[nH]c2ccccc12)C(=O)N[C@@H](C(=O)N[C@@H](Cc1c[nH]c2ccccc12)C(=O)NCCO)[C@H](C)O)C(C)C)C(C)C)C(C)C [compound 6959] (For-VGA[dV]A[dL]V[dL]W[dV]W[dV]W[dT]W-NHCH2CH2OH) | 100 | + | 1.06
8 | CC(C)C[C@@H](NC(=O)[C@H](C)NC(=O)[C@H](NC(=O)[C@H](C)NC(=O)CNC(=O)[C@@H](NC=O)C(C)C)C(C)C)C(=O)N[C@H](C(=O)N[C@@H](C(=O)N[C@@H](Cc1c[nH]c2ccccc12)C(=O)N[C@@H](C(=O)N[C@@H](Cc1c[nH]c2ccccc12)C(=O)N[C@@H](C(=O)N[C@@H](Cc1c[nH]c2ccccc12)C(=O)N[C@H](CC(C)C)C(=O)N[C@@H](Cc1c[nH]c2ccccc12)C(=O)NCCO)C(C)C)[C@H](C)O)C(C)C)C(C)C [compound 12865] (For-VGA[dV]A[dL]V[dV]W[dT]W[dV]W[dL]W-NHCH2CH2OH) | 91.7 | - | 1.10
9 | CC(C)C[C@@H](NC(=O)[C@H](Cc1c[nH]c2ccccc12)NC(=O)[C@H](NC(=O)[C@H](Cc1c[nH]c2ccccc12)NC(=O)[C@@H](CC(C)C)NC(=O)[C@H](Cc1c[nH]c2ccccc12)NC(=O)[C@@H](CC(C)C)NC(=O)[C@@H](NC(=O)[C@H](NC(=O)[C@H](C)NC(=O)[C@H](NC(=O)[C@H](C)NC(=O)CNC(=O)[C@@H](NC=O)C(C)C)[C@H](C)O)C(C)C)C(C)C)C(C)C)C(=O)N[C@@H](Cc1c[nH]c2ccccc12)C(=O)NCCO [compound 1509] (For-VGA[dT]A[dV]V[dL]W[dL]W[dV]W[dL]W-NHCH2CH2OH) | 100 | - | 1.10
10 | CNC(=O)C[C@@H](NC(=O)[C@H](Cc1c[nH]c2ccccc12)NC(=O)[C@@H](CC(C)C)NC(=O)[C@H](Cc1c[nH]c2ccccc12)NC(=O)[C@H](NC(=O)[C@H](Cc1c[nH]c2ccccc12)NC(=O)[C@@H](CC(C)C)NC(=O)[C@@H](NC(=O)[C@@H](CC(C)C)NC(=O)[C@H](C)NC(=O)[C@@H](CC(C)C)NC(=O)[C@H](C)NC(=O)CNC(=O)[C@@H](NC=O)C(C)C)C(C)C)[C@H](C)O)C(=O)N[C@@H](Cc1c[nH]c2ccccc12)C(=O)NCCO [compound 13033] (For-VGA[dL]A[dL]V[dL]W[dT]W[dL]W[dD](NHMe)W-NHCH2CH2OH) | 100 | - | 1.01
11 | CNC(=O)C[C@@H](NC(=O)[C@H](C)NC(=O)[C@@H](CC(C)C)NC(=O)[C@H](C)NC(=O)CNC(=O)[C@@H](NC=O)C(C)C)C(=O)N[C@H](C(=O)N[C@@H](C(=O)N[C@@H](Cc1c[nH]c2ccccc12)C(=O)N[C@@H](C(=O)N[C@@H](Cc1c[nH]c2ccccc12)C(=O)N[C@H](CC(C)C)C(=O)N[C@@H](Cc1c[nH]c2ccccc12)C(=O)N[C@@H](C(=O)N[C@@H](Cc1c[nH]c2ccccc12)C(=O)NCCO)C(C)C)C(C)C)C(C)C)C(C)C [compound 8583] (For-VGA[dL]A[dD](NHMe)V[dV]W[dV]W[dL]W[dV]W-NHCH2CH2OH) | 63.4 | - | 1.15
12 | CNC(=O)C[C@@H](NC(=O)[C@H](Cc1c[nH]c2ccccc12)NC(=O)[C@H](NC(=O)[C@@H](NC(=O)[C@@H](CC(C)C)NC(=O)[C@H](C)NC(=O)[C@@H](CC(C)C)NC(=O)[C@H](C)NC(=O)CNC(=O)[C@@H](NC=O)C(C)C)C(C)C)C(C)C)C(=O)N[C@@H](Cc1c[nH]c2ccccc12)C(=O)N[C@@H](C(=O)N[C@@H](Cc1c[nH]c2ccccc12)C(=O)N[C@@H](C(=O)N[C@@H](Cc1c[nH]c2ccccc12)C(=O)NCCO)C(C)C)C(C)C [compound 5255] (For-VGA[dL]A[dL]V[dV]W[dD](NHMe)W[dV]W[dV]W-NHCH2CH2OH) | 100 | - | 1.25
13 | CC(C)C[C@@H](NC(=O)[C@H](C)NC(=O)CNC(=O)[C@@H](NC=O)C(C)C)C(=O)N[C@@H](C)C(=O)N[C@@H](C(=O)N[C@H](C(=O)N[C@H](CC(C)C)C(=O)N[C@@H](Cc1c[nH]c2ccccc12)C(=O)N[C@@H](C(=O)N[C@@H](Cc1c[nH]c2ccccc12)C(=O)N[C@@H](C(=O)N[C@@H](Cc1c[nH]c2ccccc12)C(=O)N[C@H](CC(C)C)C(=O)N[C@@H](Cc1c[nH]c2ccccc12)C(=O)NCCO)C(C)C)[C@H](C)O)C(C)C)C(C)C [compound 2236] (For-VGA[dL]A[dV]V[dL]W[dT]W[dV]W[dL]W-NHCH2CH2OH) | 100 | + | 1.03

— PMC7531004, “Discovery of gramicidin A analogues with altered activities by multidimensional screening of a one-bead-one-compound library” (Nature Communications, 2020)
